Laboratory results taken from US11959096B2, “Methods for selective inhibition of pluripotent stem cells” (THE MEDICAL COLLEGE OF WISCONSIN, INC., priority 2014, dated 2024).

Tests used:
[1] = test system: sub-confluent hiPSC; assay: Cleaved caspase-3/7 fluorescence based assay; type: cell-based, human; conditions: after initiation of treatment; 2.5 μM STF-31, 30 μM WZB117
[2] = test system: day 10 cardiomyocytes derived from hiPSC (DF6-9-9T); assay: Characterization of cardiomyocytes after STF-31 (contractility, flow cytometry, immunofluorescence, qPCR); type: cell-based, human
Protocol: Quantitative-real time PCR for TNNI3, Troponin T2 (TNNT2), and Homeobox protein Nkx-2.5 (NKX2-5) was performed as previously described using Taqman® Assays […] Cells were then fixed with 4% paraformaldehyde, permeabilized with 0.2% Triton-X, incubated with primary antibody for Troponin T (TNNT2) (Abcam: ab8295) overnight at 4° C. Cells were then incubated in secondary antibody goat anti-mouse IgG1-Alexa 568 (Life Tech: A-21124) and nuclei were detected with Hoechst 33342 (Life Tech: H21492). Cells were imaged with a Nikon Ti-U inverted microscope and Nikon Eclipse 90i confocal microscope.

[3] = test system: hiPSC; assay: Live/dead staining (calcein AM / ethidium homodimer-1); type: cell-based, human
Protocol: (§1) In Vitro Toxicity Assays: Treatment with small molecules or glucose deprivation was initiated in hESC or hiPSC at 24 and 96 h post-plating and in vitro toxicity assays were performed at specified treatment endpoints 24-96 hours after treatment initiation. […] Neutral red assays for cell viability were performed as previously described. In vitro cell death was determined using SYTOX® Green nucleic acid stain (Life Technologies). Briefly, cells were incubated in 5 μM SYTOX® Green for 30 minutes at 37° C. in a humidified cell incubator with 5% CO2. Percent cell viability was determined by normalizing to replicate cells incubated with 120 μM digitonin (Sigma-Aldrich) and 5 μM SYTOX® Green. Imaging of cell viability was performed using Live/Dead® Viability/Cytotoxicity Kit, for mammalian cells (Life Technologies). Cells were stained for 20 minutes at room temperature with 4 μM Calcein AM to detect viable cells and 2 μM Ethidium Homodimer 1 to detect cells with compromised membranes. Representative images of alterations in cell morphology were acquired on confluent hPSC 24-72 hours after treatment initiation. Imaging was performed with a Nikon Ti-U inverted microscope.

[4] = SYTOX Green cell viability assay; type: cell-based, human; conditions: human, hiPSC (DF6-9-9T) cells
Protocol: as §1

[5] = test system: hiPSC; assay: Nucleotide pool measurements (HPLC); type: cell-based, human
Protocol: Nucleotide Pool Measurements: ATP, ADP, AMP, and NAD^+ were extracted using perchloric acid precipitation and analyzed using HPLC, following a previously published method. ATP, ADP, AMP and NAD^+ peaks were measured for each sample, compared with the standards, and normalized to protein levels.

[6] = test system: H1 hESC colonies; assay: Elimination of hESC colonies grown on human fibroblast feeders (alkaline phosphatase staining, brightfield); type: cell-based
[7] = test system: DF6-9-9T hiPSC-derived cardiomyocytes; assay: Neutral red viability assay in hiPSC-derived cardiomyocytes; type: cell-based; conditions: 24 hour pulse treatment
Protocol: as §1

[8] = test system: mesenchymal stem cells, fibroblasts, retinal pigmented epithelial cells, hiPSC-derived cardiomyocytes, specified hepatic endoderm cells, neural progenitors; type: cell-based; conditions: 2.5 μM for 72 hours
Protocol: (C) Human iPSC-derived neural progenitors were treated with 2.5 μM for 72 hours and assessed by MTT assay (top; day 10 and day 12 progenitors) and immunofluorescence (bottom; day 12 progenitors shown).
Viability measurements were consistent with these visual observations. See data for cardiomyocytes, neural progenitors, and fibroblasts in FIGS. 8B-C). […] See Boheler et al., Stem Cell Reports 3, 185-203 (2014).

[9] = test system: confluent hiPSC (DF6-9-9T); assay: Bright field imaging of cell morphology; type: cell-based, human
Protocol: as §1

[10] = test system: human fibroblasts; conditions: treatment time extended to 72 hours; previous report [19]; cited from earlier work
[11] = test system: hiPSC (DF6-9-9T); assay: Neutral red cell viability assay in hiPSC; type: cell-based, human; conditions: for LD50: 24 hour pulse treatment, viability 72 hours after treatment initiation
Protocol: (§2) Neutral red assays for cell viability were performed as previously described. In vitro cell death was determined using SYTOX® Green nucleic acid stain (Life Technologies). Briefly, cells were incubated in 5 μM SYTOX® Green for 30 minutes at 37° C. in a humidified cell incubator with 5% CO2. […] Imaging of cell viability was performed using Live/Dead® Viability/Cytotoxicity Kit, for mammalian cells (Life Technologies). Cells were stained for 20 minutes at room temperature with 4 μM Calcein AM to detect viable cells and 2 μM Ethidium Homodimer 1 to detect cells with compromised membranes. […] Imaging was performed with a Nikon Ti-U inverted microscope.

[12] = Neutral red cell viability assay in hiPSC; type: cell-based, human; conditions: human, hiPSC (DF6-9-9T) cells; 72 hours after start of treatment; both confluent and sub-confluent cells; 2.5 μM; read-out: viable cells remaining
Protocol: as §2

[13] = test system: sub-confluent hiPSC; assay: Immunoblot analysis of p-AMPK, AMPK, cleaved caspase-3 and -9; type: cell-based, human; conditions: 2.5 μM STF-31, 30 μM WZB117
Protocol: Immunoblot Analysis: Non-adherent cells were collected by centrifugation, adherent cells were washed once with d-PBS and lysed in Laemmli buffer, combined with non-adherent cell pellet, and heated at 95° C. for 5 minutes. Protein concentration was measured using the Qubit protein assay (Life Technologies). 25 μg of total protein was separated by SDS-PAGE, transferred to nitrocellulose membrane (GE Healthcare Life Sciences) and blocked according to the manufacturer's instructions. Membranes were incubated overnight at 4° C. with the following dilutions of primary antibodies: rabbit anti-cleaved caspase-3 (1:500), rabbit anti-caspase-9 (1:1000), rabbit anti-phospho-AMPK (1:1000), and rabbit anti-AMPK (1:1,000) from Cell Signaling Technology, and mouse anti-GAPDH (1:10,000) from Life Technologies. Membranes were then incubated with secondary antibodies for 45 minutes at the following concentrations: donkey anti-mouse-horseradish peroxidase (1:5,000) and donkey anti-rabbit-horseradish peroxidase (1:7,000) from Jackson Immunoresearch Laboratories, Inc., followed by detection using enhanced chemiluminescence.

[14] = 5 μM 24 hour pulse, 72 hours after treatment initiation

CC(C)(C)c1ccc(S(=O)(=O)NCc2ccc(C(=O)Nc3cccnc3)cc2)cc1 [STF-31, 4-[[[[4-(1,1-Dimethylethyl)phenyl]sulfonyl]amino]methyl]-N-3-pyridinyl-benzamide]
time of induction of caspase-3/7 activity [1]: 24 h
expression of cardiac genes (q-PCR) ([2]; 5 μM 24 hour pulse, 24-72 hours after initiation): not significantly altered
abundance of cardiac markers TNNI3 and IRX4 (flow cytometry) [2, 14]: did not affect abundance
structural organization of TNNT2 [2, 14]: maintained comparable structural organization
cardiomyocyte spontaneous contractility ([2]; 5 μM for 24 hours, day 10 cardiomyocytes): did not affect cardiomyocyte spontaneous contractility
contractions, protein and mRNA levels of cardiomyocyte markers, structural features compared with controls ([2]; treated on day 5 and day 10 of differentiation): indistinguishable from controls
live/dead staining ([3]; 48 hours, 2.5 μM STF-31): small patches of live cells remained
live/dead staining ([3]; 72 hours, confluent, 2.5 μM STF-31, 30 μM WZB117, 20 μM PluriSIn): not visible
viability at 72 h, 2.5 μM [4]: 10%
time until ATP levels decrease ([5]; 2.5 μM STF-31): 18 h
NAD+ levels ([5]; 2.5 μM STF-31, by 3 hours): −50%
NAD+ levels ([5]; 2.5 μM STF-31, by 18 hours): < 1%
colonies by alkaline phosphatase staining ([6]; after 96 hours of treatment, 2.5 μM): Colonies were not detected
time at which toxicity occurs ([6]; hESC colonies on human fibroblast feeder cells, 2.5 μM): 48 to 72 h
colony growth after passaging ([6]; passaged 96 hours after treatment initiation, cultured additional 72 hours): No colony growth or alkaline phosphatase activity was detected
LD50 [7]: 40 µM
LD50 cardiomyocytes relative to hiPSC [7]: 22 fold
visible changes in morphology or cell death [8]: None of these cell types exhibited visible changes in morphology or obvious cell death
morphology of hiPSC ([9]; 2.5 μM STF-31, 24 hour incubation): did not modify the morphology
morphology of hiPSC ([9]; 2.5 μM STF-31, 48 hour treatment): patches of diminished, non-adherent cells and reduction in overall cell number
morphology of hiPSC ([9]; 72 hours, 2.5 μM STF-31, 30 μM WZB117, 20 μM PluriSIn): highly toxic
cell viability [10]: did not result in a decrease in cell viability
LD50 ([11]; confluent hiPSC): 1.78 µM
LD50 ([11]; sub-confluent hiPSC): 1.35 µM
effect of increasing concentration on time of significant toxicity ([11]; concentrations up to 100 μM, neutral red): did not accelerate the time
median lethal dose (LD50) ([11]; confluent hiPSC, 48 hours after continuous treatment, neutral red): 182 nM
minimal treatment time to achieve complete toxicity of hPSC ([11]; data not shown): 24 h
viability at 72 h, 2.5 μM [12]: < 2%
time at which cleaved caspase-3 and -9 are observed [13]: significantly later
time at which p-AMPK is detected/increased ([13]; post-treatment): 24 h
